Results on 14 compounds are retold here after PubChem BioAssay (NCI).

Among the test systems are NCI-H522 lung; K-562 leukemia; SK-MEL-5 melanoma; SF-539 CNS; NCI-H23 lung; OVCAR-5 ovarian; U251 CNS; LOX IMVI melanoma; BT-549 breast; HS 578T breast.
Assay in all cases: growth of human tumour cells (NCI), 48 h

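A five-concentration, 48-hour dose response in 96-well plates underlies each endpoint, interpolated linearly between surrounding concentrations. GI50 is the concentration that inhibits growth by half. TGI denotes the concentration required for complete inhibition of growth.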

With `Clc1ccc(CCn2cncn2)c(Cl)c1`, the TGI in the assay with NCI-H522 lung, in the assay with K-562 leukemia, in the assay with SK-MEL-5 melanoma, with SF-539 CNS, in the assay on NCI-H23 lung and with OVCAR-5 ovarian was above 100 µM each time. The compound also showed a TGI in the assay with U251 CNS above 100 µM.

Regarding `Cn1c(-c2ccccc2)c/c(=N\NS(C)(=O)=O)c2cc(S(=O)(=O)O)ccc21`, the TGI in the assay with NCI-H522 lung, with K-562 leukemia, with SK-MEL-5 melanoma, in the assay with SF-539 CNS, in the assay on NCI-H23 lung and in the assay on OVCAR-5 ovarian was above 100 µM each time. Moreover, the TGI in the assay with U251 CNS and in the assay with LOX IMVI melanoma was above 100 µM throughout.

Take `C=C1CCC2C(C)(CO)C(O)CCC2(C)C1CC(O)C1=CCOC1=O` (stereo not given): the TGI is 20.3 µM with NCI-H522 lung; above 100 µM with K-562 leukemia; above 100 µM with SK-MEL-5 melanoma; 55 µM with SF-539 CNS; above 100 µM in the assay with NCI-H23 lung; above 100 µM in the assay with OVCAR-5 ovarian. For the same compound, the TGI in the assay on U251 CNS is 50.7 µM; in the assay on LOX IMVI melanoma, above 100 µM.

With `O=[N+]([O-])c1ccc(C2N3CCCCC3[C@@H]3c4[nH]c5ccccc5c4CCN23)cc1` (stereo not given in full), the TGI with K-562 leukemia was above 100 µM; with SK-MEL-5 melanoma, 28.2 µM; in the assay with SF-539 CNS, 29.9 µM; in the assay with NCI-H23 lung it was 35.7 µM; in the assay on OVCAR-5 ovarian, 56.5 µM; in the assay on U251 CNS, 58.1 µM.

As to `O=C(CCc1cc(-c2ccco2)n(-c2ccc([N+](=O)[O-])cc2[N+](=O)[O-])n1)Nc1ccccc1`, the TGI in the assay on NCI-H522 lung, with K-562 leukemia, in the assay on SK-MEL-5 melanoma, with SF-539 CNS, with NCI-H23 lung and in the assay with OVCAR-5 ovarian was above 100 µM in each case. The same compound yielded a TGI in the assay with U251 CNS above 100 µM.

`C#Cc1ccc(-n2c(/C=C/c3ccc4ccccc4n3)nc3ncccc3c2=O)cc1`: the GI50 with NCI-H522 lung is 0.281 µM; with K-562 leukemia, 0.33 µM; in the assay on SK-MEL-5 melanoma, 0.246 µM; in the assay with SF-539 CNS, 0.593 µM; with NCI-H23 lung it was 0.774 µM; in the assay on U251 CNS, 0.419 µM. Moreover, the GI50 with LOX IMVI melanoma was 0.169 µM; with BT-549 breast, 0.514 µM. Further, the TGI with NCI-H522 lung is 0.779 µM; with K-562 leukemia it was above 100 µM; with SK-MEL-5 melanoma, 0.683 µM; with SF-539 CNS, 1.93 µM; in the assay on NCI-H23 lung, 2.32 µM; in the assay with U251 CNS, 1.59 µM. Moreover, the results for the TGI in the assay with LOX IMVI melanoma and in the assay on BT-549 breast were 0.657 µM and 2.19 µM, respectively.

Take `COC(=O)/C(Cl)=C1/CC1COCc1ccccc1` (stereo not given): the TGI in the assay on NCI-H522 lung is 40.5 µM; in the assay with K-562 leukemia, 49.9 µM; with SK-MEL-5 melanoma, 54.7 µM; with SF-539 CNS it was 49.8 µM; in the assay with NCI-H23 lung it was 88.2 µM; in the assay with OVCAR-5 ovarian it was above 100 µM. Besides, the TGI in the assay on LOX IMVI melanoma was above 10 µM.

Consider `N=c1c2c(=O)n3c(nc2nc2sc4ccc(Cl)cc4n12)-c1ccccc1Sc1ccccc1-3`, for which the GI50 in the assay with NCI-H522 lung is 1.76 µM; in the assay with K-562 leukemia, 1.61 µM; in the assay on SK-MEL-5 melanoma, 1.42 µM; in the assay with SF-539 CNS, 3.34 µM; with NCI-H23 lung, 1.9 µM; with OVCAR-5 ovarian it was 4.62 µM. Besides, the GI50 is 2.8 µM in the assay with U251 CNS, 2.69 µM with LOX IMVI melanoma and 2.2 µM in the assay on HS 578T breast. Further, the TGI with NCI-H522 lung is 11.4 µM; in the assay with K-562 leukemia, above 100 µM; in the assay on SK-MEL-5 melanoma, 3.86 µM; with SF-539 CNS, 18.4 µM; in the assay on NCI-H23 lung, 7.49 µM; in the assay on OVCAR-5 ovarian it was 24 µM. The results for the TGI in the assay with U251 CNS, in the assay with LOX IMVI melanoma and in the assay on HS 578T breast were 12.6 µM, 20.2 µM and 10.1 µM, respectively.

For `Cc1ccc(S(=O)(=O)NC(=O)Nc2nc(Cl)cc(Cl)n2)cc1`, the TGI was 23.9 µM with NCI-H522 lung; above 100 µM in the assay on K-562 leukemia; above 100 µM in the assay on SK-MEL-5 melanoma; above 100 µM in the assay on SF-539 CNS; above 100 µM in the assay on NCI-H23 lung; above 100 µM in the assay on OVCAR-5 ovarian. Besides, the TGI with U251 CNS and in the assay with LOX IMVI melanoma was above 100 µM each time.

In the case of `CCOCC[P+](c1ccccc1)(c1ccccc1)c1ccccc1`, the GI50 in the assay on NCI-H522 lung was 11.9 µM; with K-562 leukemia, 14.9 µM; with SK-MEL-5 melanoma it was 10.1 µM; in the assay on SF-539 CNS it was 23.2 µM; in the assay on NCI-H23 lung, 17.5 µM; with OVCAR-5 ovarian it was 25.9 µM. The GI50 in the assay with U251 CNS was 18.1 µM; in the assay with LOX IMVI melanoma it was 15.3 µM; in the assay with HS 578T breast it was 21.7 µM. Further, the TGI with NCI-H522 lung was 50.9 µM; with K-562 leukemia, above 100 µM; with SK-MEL-5 melanoma, 25 µM; with SF-539 CNS, above 100 µM; with NCI-H23 lung, 80.9 µM; with OVCAR-5 ovarian, above 100 µM. The TGI worked out at 92.5 µM in the assay with U251 CNS, 42.3 µM in the assay on LOX IMVI melanoma and 99.5 µM in the assay with HS 578T breast.

With `O=C(Cc1nc2ccccc2s1)NC12CC3CC(CC(C3)C1)C2`, the TGI in the assay on NCI-H522 lung, in the assay with K-562 leukemia, in the assay with SF-539 CNS, with NCI-H23 lung, with U251 CNS and in the assay on LOX IMVI melanoma was above 100 µM each time.

Regarding `COC(=O)CCC(=O)C(C#N)c1ccc(Cl)cc1Cl` (stereo not given), the TGI with NCI-H522 lung, in the assay on K-562 leukemia, with SF-539 CNS, with NCI-H23 lung, with U251 CNS and in the assay with LOX IMVI melanoma was above 100 µM each time.

As for `C/C(CN1C(=O)c2ccccc2C1=O)=N\NS(C)(=O)=O`, the TGI in the assay with NCI-H522 lung, in the assay on K-562 leukemia, with SK-MEL-5 melanoma, in the assay with SF-539 CNS, in the assay with NCI-H23 lung and in the assay on OVCAR-5 ovarian was above 100 µM in each case. Besides, the TGI in the assay on U251 CNS was above 100 µM.

As to `N#Cc1ccccc1/C=N/O`, the TGI with NCI-H522 lung was above 100 µM; in the assay with K-562 leukemia it was above 65.6 µM; in the assay on SK-MEL-5 melanoma it was above 100 µM; with SF-539 CNS, above 100 µM; with NCI-H23 lung it was above 100 µM; in the assay with OVCAR-5 ovarian, above 100 µM. The TGI in the assay on U251 CNS and in the assay with LOX IMVI melanoma was above 100 µM each time.
